Measured values published in PubChem BioAssay (NCI).
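Growth conditions: 96-well plates. Treatment: test compound, 48 hours, 5 concentrations. Analysis: linear interpolation between bracketing concentrations; unreached endpoints set to highest concentration. GI50: concentration for 50% inhibition of growth. The concentration for full growth arrest is given as TGI.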

Experiments:
Assay in all cases: NCI anticancer screen, dose series, 48 h
[1] = system: MOLT-4 leukemia
[2] = system: OVCAR-5 ovarian
[3] = system: HCT-116 colon
[4] = system: UACC-257 melanoma
[5] = system: NCI-H460 lung
[6] = system: SW-620 colon
[7] = system: SNB-75 CNS
[8] = system: SF-539 CNS
[9] = system: HL-60(TB) leukemia
[10] = system: MCF7 breast

Row | SMILES | TGI [1] | TGI [2] | TGI [3] | TGI [4] | TGI [5] | TGI [6] | TGI [7] | TGI [8] | TGI [9] | GI50 [1] | GI50 [2] | GI50 [10] | TGI [10] | GI50 [3] | GI50 [4] | GI50 [5] | GI50 [6] | GI50 [7] | GI50 [8]
1 | O=C(O)CCC(NC(=O)c1ccccc1)C(=O)O (configuration not stated) | > 100 µM | > 100 µM | > 100 µM | > 100 µM | > 100 µM | > 100 µM | > 100 µM | > 100 µM |  |  |  |  |  |  |  |  |  |  | 
2 | O=C1C2C=CC(C2)C(c2ccc(O)cc2)N1O (configuration not stated) | > 100 µM | > 100 µM | > 100 µM | > 100 µM | > 100 µM | > 100 µM | > 100 µM |  | > 100 µM |  |  |  |  |  |  |  |  |  | 
3 | Cn1ccc2c(C(=O)c3ccccc3)cccc2c1=O | > 100 µM |  | > 100 µM | > 100 µM | > 100 µM | > 100 µM | 72.3 µM | > 100 µM | 88.9 µM |  |  |  |  |  |  |  |  |  | 
4 | COc1ccccc1C1c2cc3c(cc2OC(O)(CO)C1C(=O)O)OCO3 (configuration not stated) (tested in a mixture with another compound) | > 100 µM | > 100 µM | > 100 µM | > 100 µM | > 100 µM | > 100 µM | > 100 µM | > 100 µM | > 100 µM |  |  |  |  |  |  |  |  |  | 
5 | FC(F)(F)c1ccc(C#Cc2ccccc2C#Cc2ccccc2)cc1 | 87.2 µM | > 100 µM | > 100 µM | > 100 µM | > 100 µM | > 100 µM | > 100 µM | > 100 µM |  | 35 µM | 48.7 µM | 22.5 µM | 89.8 µM | 21.6 µM | 69.5 µM | 41.1 µM | 30.6 µM | > 100 µM | 41.4 µM
6 | Cc1ccc(NC(=O)C(=O)CC(=O)c2c(C)n([O-])c3ccccc3[n+]2=O)cc1 | 52.8 µM | > 100 µM | 37.2 µM | 50.7 µM | 77.4 µM | > 100 µM | 58 µM | 62.5 µM | 48.6 µM |  |  |  |  |  |  |  |  |  | 
7 | CN(C)C=[N+]=[N-] | > 100 µM | > 100 µM | > 100 µM | > 100 µM | > 100 µM | > 100 µM | > 100 µM | > 100 µM | > 100 µM |  |  |  |  |  |  |  |  |  | 
8 | COc1cc2c(cc1OC)[C@H]1C(COC(=O)c3ccccc3)CSC(=Nc3ccccc3)N1CC2 (some centres not stated) |  | > 100 µM | > 100 µM | > 100 µM | > 100 µM | > 100 µM | > 100 µM | > 100 µM | > 100 µM |  |  |  |  |  |  |  |  |  | 
9 | NCCN.NCCN.O=C([O-])CCl.O=C([O-])CCl.[Co+3].[O-][Cl+3]([O-])([O-])[O-] | > 100 µM | > 100 µM | > 100 µM | > 100 µM | > 100 µM | > 100 µM | > 100 µM | > 100 µM |  | > 100 µM | > 100 µM |  |  | > 100 µM | > 100 µM | > 100 µM | > 100 µM | 74.7 µM | > 100 µM
10 | O=S(=O)(c1cccc2c(Cl)cccc12)N1CCCNCC1 | 26 µM | 23.6 µM | 21.9 µM | 22.8 µM | 47 µM | 31.8 µM |  | 37.7 µM |  | 12.8 µM | 11.5 µM | 24.5 µM | 50.8 µM | 10.3 µM | 10.1 µM | 19.4 µM | 17.9 µM |  | 19.4 µM
11 | C[N+]1(C)C/C(=C\c2ccccc2)C(=O)/C(=C/c2ccccc2)C1 | > 100 µM | > 100 µM | > 100 µM | > 100 µM | > 100 µM |  | > 100 µM | > 100 µM | > 100 µM |  |  |  |  |  |  |  |  |  | 
12 | Nc1c([N+](=O)[O-])cc2c3c(cccc13)CC2 | > 100 µM | > 100 µM | > 100 µM | > 100 µM | > 100 µM | > 100 µM | > 100 µM | > 100 µM | > 100 µM |  |  |  |  |  |  |  |  |  | 
13 | Cc1ccc2nc(-c3ccccc3)c(N=O)n2c1 | > 100 µM | > 100 µM | > 100 µM | > 100 µM | > 100 µM | > 100 µM | > 100 µM | 92.7 µM |  |  |  |  | > 100 µM |  |  |  |  |  | 
14 | Cc1c(C(=O)CC(=O)C(=O)Nc2ccc(Cl)cc2)[n+](=O)c2ccccc2n1[O-] | > 100 µM | > 100 µM | > 100 µM | > 100 µM | > 100 µM | > 100 µM | > 100 µM | > 100 µM | > 100 µM |  |  |  |  |  |  |  |  |  | 
15 | O=[N+]([O-])c1cc(C2SCc3nc4ccccc4n32)ccc1Cl (configuration not stated) | > 100 µM | 76.8 µM | 40.4 µM | 53.1 µM | > 100 µM | > 100 µM | > 100 µM | 89.5 µM | 42.4 µM |  |  |  |  |  |  |  |  |  | 
16 | O=C(O)CNS(=O)(=O)c1ccc(NC(=O)CI)cc1 | 34.5 µM | 61.1 µM |  | > 100 µM | 64 µM | 39.6 µM | 32.2 µM | 30 µM | 37.5 µM |  |  |  |  |  |  |  |  |  | 
17 | O=C(O)c1cc(-c2ccncc2)nc2ccccc12 | > 100 µM | > 100 µM | > 100 µM | > 100 µM | > 100 µM | > 100 µM |  | > 100 µM | > 100 µM |  |  |  | > 100 µM |  |  |  |  |  | 
18 | COc1ccc(S(=O)(=O)N/N=C/c2cc(I)cc([N+](=O)[O-])c2O)cc1OC | 64.8 µM | > 100 µM |  | > 100 µM | > 100 µM | > 100 µM |  |  | 57.5 µM |  |  |  |  |  |  |  |  |  | 
19 | Cc1[nH]c(=O)n2c(C)nnc2c1C(=O)Nc1cc(Cl)cc(Cl)c1 | > 100 µM | > 100 µM | > 100 µM |  | > 100 µM | > 100 µM | 88.9 µM | 78.4 µM | 47.9 µM |  |  |  |  |  |  |  |  |  | 
20 | C[C@]12CCC(=O)C(O)=C1CC[C@@H]1C2CC[C@]2(C)Nc3c(cnn3-c3ccccc3)CC12 (some centres not stated) | > 100 µM | > 100 µM | > 100 µM | > 100 µM | > 100 µM | > 100 µM | > 100 µM | > 100 µM | 62.6 µM |  |  |  |  |  |  |  |  |  | 
21 | COc1ccc2c(c1)Oc1cc(O)ccc1[C@@H]2c1ccccc1C(=O)NC(C)c1ccccc1 (some centres not stated) | 36.2 µM | 30.5 µM | 24.8 µM | 32.7 µM | 27.4 µM | 38.9 µM | 36.3 µM | 31 µM | 34.5 µM |  |  |  |  |  |  |  |  |  | 
